Test results taken from US20260132140A1, “IMIDAZOLYL-AMINO-PYRAZINE-CARBONITRILS AS CHK-1 INHIBITORS” (BenevolentAI Bio Limited, priority 2022, published 2026).

Tests used:
human Chk1 kinase = biological target: T1, human Chk1 kinase (Homo sapiens, UniProt O14757); experiment: biochemical
T1 sequence (O14757 1-476): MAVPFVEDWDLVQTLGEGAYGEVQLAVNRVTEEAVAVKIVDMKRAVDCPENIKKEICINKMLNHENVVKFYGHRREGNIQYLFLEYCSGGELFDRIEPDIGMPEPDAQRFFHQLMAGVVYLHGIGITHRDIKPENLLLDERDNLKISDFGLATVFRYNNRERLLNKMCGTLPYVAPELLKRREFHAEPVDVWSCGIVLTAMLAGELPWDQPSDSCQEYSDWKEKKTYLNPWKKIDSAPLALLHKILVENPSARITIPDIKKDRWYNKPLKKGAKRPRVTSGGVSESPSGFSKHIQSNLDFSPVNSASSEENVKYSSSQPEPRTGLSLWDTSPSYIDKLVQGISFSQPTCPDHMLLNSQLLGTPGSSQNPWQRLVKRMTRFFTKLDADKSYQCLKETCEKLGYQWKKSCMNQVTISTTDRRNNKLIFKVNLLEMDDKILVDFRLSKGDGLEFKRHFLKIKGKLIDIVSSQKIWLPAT

human Chk2 kinase = human Chk2 kinase (Homo sapiens, UniProt O96017); experiment: biochemical
Chain of human Chk2 kinase (O96017 whole entry): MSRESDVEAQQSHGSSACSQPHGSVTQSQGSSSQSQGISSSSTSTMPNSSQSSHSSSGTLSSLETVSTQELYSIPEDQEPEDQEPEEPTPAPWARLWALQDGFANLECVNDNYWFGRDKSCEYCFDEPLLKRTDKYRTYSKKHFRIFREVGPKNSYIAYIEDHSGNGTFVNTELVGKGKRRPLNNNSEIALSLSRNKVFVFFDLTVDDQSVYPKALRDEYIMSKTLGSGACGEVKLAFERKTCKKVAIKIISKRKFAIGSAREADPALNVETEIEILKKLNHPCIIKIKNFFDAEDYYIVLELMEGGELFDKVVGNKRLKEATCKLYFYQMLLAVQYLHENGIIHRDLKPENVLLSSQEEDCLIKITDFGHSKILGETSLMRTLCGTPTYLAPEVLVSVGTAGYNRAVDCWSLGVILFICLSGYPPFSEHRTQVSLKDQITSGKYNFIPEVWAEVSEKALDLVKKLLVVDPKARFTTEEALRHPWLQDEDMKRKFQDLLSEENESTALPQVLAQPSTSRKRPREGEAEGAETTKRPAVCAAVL

| SMILES | IC50 (human Chk1 kinase) [nM] | IC50 (human Chk2 kinase) [nM] |
| --- | --- | --- |
| CN1CC[C@@H]2CN(c3ccc(-n4cnc(Nc5cnc(C#N)cn5)c4)cc3)C[C@@H]21 [Example 87, 5-((1-(4-((3aR,6aR)-1-Methylhexahydropyrrolo[3,4-b]pyrrol-5(1H)-yl)phenyl)-1H-imidazol-4-yl)amino)pyrazine-2-carbonitrile] | 10 to 31.6 | 10000 to 100000 |
| CCN[C@H]1CN(c2ccc(-n3cnc(Nc4cnc(C#N)cn4)c3)cc2)C[C@H]1F [Example 88, 5-((1-(4-((3S,4R)-3-(Ethylamino)-4-fluoropyrrolidin-1-yl)phenyl)-1H-imidazol-4-yl)amino)pyrazine-2-carbonitrile] | 10 to 31.6 | 1000 to 10000 |
| CN1CC[C@@H]2[C@H]1CCN2c1ccc(-n2cnc(Nc3cnc(C#N)cn3)c2)cc1 [Example 91, 5-((1-(4-((3aR,6aR)-4-Methylhexahydropyrrolo[3,2-b]pyrrol-1(2H)-yl)phenyl)-1H-imidazol-4-yl)amino)pyrazine-2-carbonitrile] | 10 to 31.6 | 10000 to 100000 |
| N#Cc1cnc(Nc2cn(-c3ccc(N4CC[C@@H](NCCC(F)(F)F)C4)cn3)cn2)cn1 [Example 93, (R)-5-((1-(5-(3-((3,3,3-Trifluoropropyl)amino)pyrrolidin-1-yl)pyridin-2-yl)-1H-imidazol-4-yl)amino)pyrazine-2-carbonitrile] | 10 to 31.6 | > 100000 |
| CN1CC[C@@H](N(C)c2ccc(-n3cnc(Nc4cnc(C#N)cn4)c3)cc2)C1 [Example 94, (R)-5-((1-(4-(Methyl(1-methylpyrrolidin-3-yl)amino)phenyl)-1H-imidazol-4-yl)amino)pyrazine-2-carbonitrile] | 31.6 to 100 | 10000 to 100000 |
| CN1CC[C@H](N(C)c2ccc(-n3cnc(Nc4cnc(C#N)cn4)c3)cc2)C1 [Example 95, (S)-5-((1-(4-(Methyl(1-methylpyrrolidin-3-yl)amino)phenyl)-1H-imidazol-4-yl)amino)pyrazine-2-carbonitrile] | 31.6 to 100 | 10000 to 100000 |
| CN1CCN(c2ccc(-n3cnc(Nc4cnc(C#N)cn4)c3)cc2)CC1(C)C [Example 97, 5-((1-(4-(3,3,4-Trimethylpiperazin-1-yl)phenyl)-1H-imidazol-4-yl)amino)pyrazine-2-carbonitrile] | 31.6 to 100 | 10000 to 100000 |
| CN1CC2(CCN2c2ccc(-n3cnc(Nc4cnc(C#N)cn4)c3)cc2)C1 [Example 99, 5-((1-(4-(6-Methyl-1,6-diazaspiro[3.3]heptan-1-yl)phenyl)-1H-imidazol-4-yl)amino)pyrazine-2-carbonitrile] | 10 to 31.6 | 10000 to 100000 |
| N#Cc1cnc(Nc2cn(-c3ccc(N4CC[C@@H](N5CCC5)C4)cn3)cn2)cn1 [Example 102, (R)-5-((1-(5-(3-(Azetidin-1-yl)pyrrolidin-1-yl)pyridin-2-yl)-1H-imidazol-4-yl)amino)pyrazine-2-carbonitrile] | 10 to 31.6 | 1000 to 10000 |
| COc1cc(N2CC[C@@H](N3CCC3)C2)ccc1-n1cnc(Nc2cnc(C#N)cn2)c1 [Example 103, (R)-5-((1-(4-(3-(Azetidin-1-yl)pyrrolidin-1-yl)-2-methoxyphenyl)-1H-imidazol-4-yl)amino)pyrazine-2-carbonitrile] | < 10 | 1000 to 10000 |
| N#Cc1cnc(Nc2cn(-c3ccc(CN4CCOCC4)cc3)cn2)cn1 [Example 142, 5-((1-(4-(Morpholinomethyl)phenyl)-1H-imidazol-4-yl)amino)pyrazine-2-carbonitrile] | 100 to 316 | 10000 to 100000 |
| CN1C[C@@H](F)[C@@H](OCc2ccc(-n3cnc(Nc4cnc(C#N)cn4)c3)cc2)C1 [Example 146, 5-((1-(4-((((3S,4R)-4-fluoro-1-Methylpyrrolidin-3-yl)oxy)methyl)phenyl)-1H-imidazol-4-yl)amino)pyrazine-2-carbonitrile] | 31.6 to 100 | 10000 to 100000 |
| N#Cc1cnc(Nc2cn(-c3cccc(N4C[C@@H](N)[C@@H](F)C4)c3)cn2)cn1 [Example 151, 5-((1-(3-((3R,4S)-3-Amino-4-fluoropyrrolidin-1-yl)phenyl)-1H-imidazol-4-yl)amino)pyrazine-2-carbonitrile] | 31.6 to 100 | 10000 to 100000 |
| N#Cc1cnc(Nc2cn(-c3ccc(N4C[C@H]5CN[C@H]5C4)cc3)cn2)cn1 [Example 161, 5-((1-(4-((1R,5R)-3,6-Diazabicyclo[3.2.0]heptan-3-yl)phenyl)-1H-imidazol-4-yl)amino)pyrazine-2-carbonitrile] | 10 to 31.6 | 1000 to 10000 |
| CCN[C@@H]1CCN(c2ccc(-n3cnc(Nc4cnc(C#N)cn4)c3)cc2)C1 [Example 162, (R)-5-((1-(4-(3-(Ethylamino)pyrrolidin-1-yl)phenyl)-1H-imidazol-4-yl)amino)pyrazine-2-carbonitrile] | < 10 | 1000 to 10000 |
| CN[C@H]1CN(c2ccc(-n3cnc(Nc4cnc(C#N)cn4)c3)c(OC)c2)C[C@H]1F [Example 164, 5-((1-(4-((3R,4S)-3-Fluoro-4-(methylamino)pyrrolidin-1-yl)-2-methoxyphenyl)-1H-imidazol-4-yl)amino)pyrazine-2-carbonitrile] | < 10 | 1000 to 10000 |
| COc1cc(CN2CC[C@@H](F)C2)ccc1-n1cnc(Nc2cnc(C#N)cn2)c1 [Example 169] | 10 to 31.6 | 10000 to 100000 |

Results, then the molecule that gave them:

| IC50 (human Chk1 kinase) [nM] | IC50 (human Chk2 kinase) [nM] | SMILES |
| --- | --- | --- |
| 10 to 31.6 | 10000 to 100000 | CN1CCC12CCN(c1ccc(-n3cnc(Nc4cnc(C#N)cn4)c3)cc1)CC2 [Example 100, 5-((1-(4-(1-Methyl-1,7-diazaspiro[3.5]nonan-7-yl)phenyl)-1H-imidazol-4-yl)amino)pyrazine-2-carbonitrile] |
| < 10 | 10000 to 100000 | CN1C[C@@H]2CN(c3ccc(-n4cnc(Nc5cnc(C#N)cn5)c4)cc3)C[C@@H]2C1 [Example 101, 5-((1-(4-((3aR,6aS)-5-Methylhexahydropyrrolo[3,4-c]pyrrol-2(1H)-yl)phenyl)-1H-imidazol-4-yl)amino)pyrazine-2-carbonitrile] |
| 10 to 31.6 | 10000 to 100000 | Cc1cc(-n2cnc(Nc3cnc(C#N)cn3)c2)ccc1N1CC[C@@H](N2CCC2)C1 [Example 104, (R)-5-((1-(4-(3-(Azetidin-1-yl)pyrrolidin-1-yl)-3-methylphenyl)-1H-imidazol-4-yl)amino)pyrazine-2-carbonitrile] |
| 10 to 31.6 | 1000 to 10000 | N#Cc1cnc(Nc2cn(-c3ccc(N4CC(F)(CN)C4)cc3)cn2)cn1 [Example 159, 5-((1-(4-(3-(Aminomethyl)-3-fluoroazetidin-1-yl)phenyl)-1H-imidazol-4-yl)amino)pyrazine-2-carbonitrile] |
| 10 to 31.6 | 1000 to 10000 | N#Cc1cnc(Nc2cn(-c3ccc(N4CC5(CCN5)C4)cc3)cn2)cn1 [Example 160, 5-((1-(4-(1,6-Diazaspiro[3.3]heptan-6-yl)phenyl)-1H-imidazol-4-yl)amino)pyrazine-2-carbonitrile] |
| 10 to 31.6 | 10000 to 100000 | CCNCc1ccc(-n2cnc(Nc3cnc(C#N)cn3)c2)c(OC)c1 [Example 170, 5-((1-(4-((Ethylamino)methyl)-2-methoxyphenyl)-1H-imidazol-4-yl)amino)pyrazine-2-carbonitrile] |
| 10 to 31.6 | 10000 to 100000 | COc1cc(CN2CCCC2)ccc1-n1cnc(Nc2cnc(C#N)cn2)c1 [Example 171, 5-((1-(2-Methoxy-4-(pyrrolidin-1-ylmethyl)phenyl)-1H-imidazol-4-yl)amino)pyrazine-2-carbonitrile] |
